The test system of experiment [1] is Mus musculus. Nature of the experiment: Radioprotective activity in irradiated C57BL/6J mouse model assessed as increase in RBC count at 300 mg/kg, ip preincubated with compound for 15 to 1440 mins followed by irradiation with 6.5 Gy and measured after 13 days of radiation. The format is functional, organism-based. Conditions: Erythrocyte, time 15-20160 min.
The test system of experiment [2] is Mus musculus. Nature of the experiment: Radioprotective activity against radiation-induced intestinal injury C57BL/6J mouse model assessed as increase in splenic index at 300 mg/kg, ip preincubated with compound for 15 to 1440 mins followed by irradiation with 13 Gy and measured after 84 hrs of radiation by H and E staining based analysis. The note with it: time 15-6480 min. The format is functional, organism-based.

For experiment [3], the system named is AHH-1. Put plainly: Radioprotective activity against human AHH-1 cells assessed as decrease in Bax expression pretreated with compound for 24 hrs in presence of ionizing irradiation by Western blotting analysis. It counts as functional, cell-based. On the technique in general: In western blotting, separated proteins are transferred to a membrane and probed.

Experiment [4] concerns AHH-1. Nature of the experiment: Anti-iradiation activity against human AHH-1 cells assessed as cell viability at 10 micromol preincubated with compound for 24 hrs followed by irradiation with 8 Gy and measured after 24 hrs by CCK-8 assay. The format is functional. The note with it: dose 10 µmol; time 48 hrs.
Experiment [5] has as its system AHH-1. Put plainly: Induction of apoptosis in human AHH-1 cells assessed as viable cells preincubated with compound for 24 hrs followed by irradiation with 8 Gy and measured after 24 hrs of radiation by Annexin V-FITC/PI staining based flow cytometry analysis (reference value: 45.1%). It counts as functional. The note with it: time 48 hrs. For orientation: In flow cytometry, cells or beads pass a laser one at a time.

In experiment [6] the test system is AHH-1. Nature of the experiment: Induction of apoptosis in human AHH-1 cells assessed as early apoptotic cells preincubated with compound for 24 hrs followed by irradiation with 4 Gy and measured after 24 hrs of radiation by Annexin V-FITC/PI staining based flow cytometry analysis (reference value: 14.3%). The format is functional. Conditions: time 48 hrs.
Experiment [7] relates to Mus musculus. Put plainly: Radioprotective activity in C57BL/6J mouse model assessed as upregulation of G-CSF expression at 300 mg/kg, ip measured after 2 hrs of 7.5 Gy radiation by ELISA analysis. It counts as functional, organism-based. Background: ELISA stands for enzyme-linked immunosorbent assay.
For experiment [8], the system named is AHH-1. Nature of the experiment: Radioprotective activity against human AHH-1 cells assessed as decrease in p53 expression pretreated with compound for 24 hrs in presence of ionizing irradiation by Western blotting analysis. The format is functional, cell-based.
The subject of experiment [9] is Mus musculus. Put plainly: Radioprotective activity in irradiated C57BL/6J mouse model assessed as increase in RBC count at 300 mg/kg, ip preincubated with compound for 15 to 1440 mins followed by irradiation with 6.5 Gy and measured after 10 to 13 days of radiation. It counts as functional, organism-based. The note with it: Erythrocyte.
Experiment [10] addresses T1, Toll-like receptor 2 (Homo sapiens, UniProt O60603). Nature of the experiment: Binding affinity to TLR2 (unknown origin) by SPR analysis. Conditions: filed as agonist, dose 3-100 µM.
The test system of experiment [11] is Mus musculus. Put plainly: Radioprotective activity against radiation-induced intestinal injury C57BL/6J mouse model assessed as increase in villi length at 300 mg/kg, ip preincubated with compound for 15 to 1440 mins followed by irradiation with 13 Gy and measured after 84 hrs of radiation by H and E staining based analysis. It counts as functional, organism-based. Conditions: time 15-6480 min.

Experiment [12] relates to Mus musculus. Nature of the experiment: Radioprotective activity against radiation-induced intestinal injury C57BL/6J mouse model assessed as increase in number of crypt foci at 300 mg/kg, ip preincubated with compound for 15 to 1440 mins followed by irradiation with 13 Gy and measured after 84 hrs of radiation by H and E staining based analysis. The format is functional, organism-based. Conditions: time 15-6480 min.

Experiment [13] concerns the target T1, Toll-like receptor 2. Put plainly: Binding affinity to TLR2 (unknown origin) assessed as dissociation constant by SPR analysis.
In experiment [14] the test system is Mus musculus. Put plainly: Radioprotective activity in C57BL/6J mouse model assessed as upregulation of IL-12 expression at 300 mg/kg, ip measured after 2 hrs of 7.5 Gy radiation by ELISA analysis. The format is functional, organism-based.

pKd: −log10 of the molar value. Activity calls are given as the source filed them. The calls are words filed in the database; no cut-off is given here.

The pKd is the Kd on a negative log10 scale, so that one unit is a factor of ten.

T1 sequence (O60603 whole entry): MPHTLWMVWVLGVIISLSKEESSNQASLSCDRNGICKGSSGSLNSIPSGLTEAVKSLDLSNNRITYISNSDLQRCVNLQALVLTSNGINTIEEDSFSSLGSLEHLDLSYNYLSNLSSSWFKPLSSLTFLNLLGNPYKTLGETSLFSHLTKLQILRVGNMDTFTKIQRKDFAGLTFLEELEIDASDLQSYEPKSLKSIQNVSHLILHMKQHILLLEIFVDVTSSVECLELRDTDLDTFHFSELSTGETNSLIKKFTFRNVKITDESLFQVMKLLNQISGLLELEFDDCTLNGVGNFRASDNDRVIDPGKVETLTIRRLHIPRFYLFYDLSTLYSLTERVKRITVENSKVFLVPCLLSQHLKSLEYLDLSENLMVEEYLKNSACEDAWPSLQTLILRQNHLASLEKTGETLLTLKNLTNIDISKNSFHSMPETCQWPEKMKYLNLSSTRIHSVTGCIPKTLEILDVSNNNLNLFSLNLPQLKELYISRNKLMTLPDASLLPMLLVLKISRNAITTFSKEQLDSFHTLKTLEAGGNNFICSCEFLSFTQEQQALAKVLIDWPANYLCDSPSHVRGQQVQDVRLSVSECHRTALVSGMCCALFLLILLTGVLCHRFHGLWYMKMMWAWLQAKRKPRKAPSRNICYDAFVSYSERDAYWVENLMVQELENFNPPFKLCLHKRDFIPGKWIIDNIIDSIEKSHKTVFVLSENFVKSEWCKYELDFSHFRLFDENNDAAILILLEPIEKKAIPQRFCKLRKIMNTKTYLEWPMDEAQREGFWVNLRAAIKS

For `[O-][S+](Cc1ccc(F)cc1)c1ccc2cc(Br)ccc2n1` (centres undefined), the result in the experiment with Mus musculus [1], in the experiment with Mus musculus [2], in the experiment on AHH-1 [3], with Mus musculus [7], with AHH-1 [8] and in the experiment with Mus musculus [9] was Active. Also, the outcome in the experiment on Mus musculus [11], in the experiment on Mus musculus [12] and with Mus musculus [14] was Active. The Activity with AHH-1 [4] was 55.86%; in the experiment on AHH-1 [5], 67.3%; in the experiment with AHH-1 [6], 14%; at Toll-like receptor 2 [10], “Dose-Dependent Effect”. Moreover, the pKd on Toll-like receptor 2 [13] is 5.45.

The values above are taken from ChEMBL document CHEMBL5505982, “Design, synthesis, biological evaluation and in silico studies of novel quinoline derivatives as potential radioprotective molecules targeting the TLR2 and p53 pathways” (Eur J Med Chem, 2024).
